The text below walks through data of PubChem BioAssay (NCI).

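Following 48 hours of exposure in 96-well plates, responses at five concentrations were used to interpolate endpoints linearly. Here, GI50 denotes the concentration required for 50% inhibition of growth. TGI: concentration producing complete growth inhibition.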

Common to all, as to assay: inhibition of tumour cell growth, NCI panel, 48 h
The test system of assay [1] is NCI/ADR-RES ovarian.
Assay [2] has as its system MCF7 breast.
Assay [3] concerns DU-145 prostate.
Assay [4] concerns SK-OV-3 ovarian.
Assay [5] concerns EKVX NSCLC.
For assay [6], the system named is U251 CNS.
For assay [7], the system named is HCC-2998 colon.
The subject of assay [8] is NCI-H522 lung.
The test system of assay [9] is M14 melanoma.
Assay [10] concerns SR leukemia.

Take `CCN(CC)CC(C)Nc1ccc([N+](=O)[O-])c2sc3ccccc3c(=O)c12` (configuration not stated): the GI50 in assay [1] was 2.65 µM; in assay [2] it was 0.452 µM; in assay [3] it was 1.49 µM; in assay [4], 1.87 µM; in assay [5] it was 2.79 µM; in assay [6], 1.46 µM. Also, the results for the GI50 in [7], in assay [8] and in assay [9] were 2.21 µM, 1.45 µM and 1.68 µM, respectively. Besides, the TGI is above 58.5 µM in assay [1]; 2.36 µM in [2]; 9.79 µM in assay [3]; 13.2 µM in assay [4]; 23.4 µM in assay [5]; 10.7 µM in assay [6]. The TGI in [7] is 11.9 µM; in assay [8], 3.91 µM; in assay [9] it was 4.03 µM.

Regarding `C[C@]12CC[C@@H]3c4ccc(OP(=O)(O)O)cc4CC[C@H]3[C@@H]1CCC2=O`, the TGI in assay [1], in assay [2], in [3], in assay [4], in [5] and in [6] was above 100 µM each time. Further, the TGI in assay [7], in assay [8] and in assay [9] was above 100 µM throughout.

As for `CC[C@H]1C=CCC[C@@]2(C[C@@H]3CC[C@@H]4[C@H](C(=O)OCCCCCCCCCCCCCCCC(=O)O)[C@]5(CCC[C@@H](C)O5)NC(=[N+]34)N2)O1`, the TGI came out at 14.8 µM in assay [1]; 4.95 µM in assay [2]; 8 µM in assay [3]; 11.8 µM in assay [4]; 0.357 µM in [10]; 10.5 µM in assay [5]. For the same compound, the TGI in assay [6] worked out at 0.903 µM; in assay [7], 0.283 µM; in assay [8], 0.365 µM; in [9], 0.212 µM.

For `O=S(=O)(O)c1ccc2cccc(N=Nc3c(O)ccc4ccccc34)c2c1`, the TGI in assay [1], in [2], in assay [3], in assay [4], in assay [10] and in assay [5] was above 100 µM throughout. Besides, the TGI in assay [6], in [7], in [8] and in assay [9] was above 100 µM each time.

Turning to `CC1SC(c2ccccc2)N(CCc2cccs2)C1=O` (configuration not stated), the GI50 in assay [1] is 3.12 µM; in assay [2], 3.36 µM; in [3], 7.08 µM; in [4], 7.64 µM; in assay [10], 3.06 µM; in assay [5], 2.77 µM. For the same compound, the GI50 in assay [6] was 3.95 µM; in assay [7], 4.4 µM; in assay [8] it was 1.89 µM. Besides, the TGI in [1] came to 21.1 µM; in [2], 15.2 µM; in [3], 19.9 µM; in assay [4], 20.9 µM; in assay [10] it was 16.4 µM; in [5], 12.7 µM. Besides, the TGI was 14.5 µM in assay [6], 16.4 µM in assay [7] and 8.76 µM in [8].

For the compound `COC(=O)C1=CC2CCCC1(O)C(C(C)=O)C2` (configuration not stated), the TGI is above 100 µM in assay [1]; above 100 µM in assay [2]; above 100 µM in assay [3]; above 100 µM in [4]; above 81.5 µM in assay [10]; above 86.6 µM in assay [5]. The TGI in assay [6] is above 100 µM; in assay [7], above 100 µM; in [8], 31.7 µM; in assay [9], above 100 µM.

`CCS(=O)(=O)Nc1ccc(Nc2c3ccccc3nc3ccccc23)c(OC)c1`: the TGI worked out at 20.6 µM in assay [1]; 6.15 µM in assay [2]; 5.89 µM in assay [4]; 2.43 µM in assay [6]; 9.3 µM in [7]; 16.1 µM in [8].

Turning to `COc1ccc2nc(-n3c(/C=C/c4ccccc4O)nc4ccccc4c3=O)sc2c1`, the TGI in assay [1] was above 100 µM; in assay [2], above 100 µM; in assay [3] it was above 100 µM; in assay [4] it was above 100 µM; in assay [5] it was 39.7 µM; in assay [6], above 100 µM. Moreover, the TGI in assay [7], in assay [8] and in assay [9] was above 100 µM each time.

For `O=C(N/N=C(/c1ccccc1)C(F)(F)F)c1ccncc1`, the TGI in assay [1], in assay [2], in [3], in assay [4], in [10] and in assay [6] was above 100 µM throughout. The TGI in assay [7], in assay [8] and in [9] was above 100 µM each time.

Consider `COc1ccc(/C=C2\C(=O)N(C3OC(COC(C)=O)C(OC(C)=O)C(OC(C)=O)C3OC(C)=O)c3ccccc3N=C2N)cc1` (configuration not stated), for which the TGI is 83.9 µM in [1]; above 100 µM in assay [2]; 87.6 µM in assay [3]; above 100 µM in [4]; 53.6 µM in assay [10]; above 100 µM in assay [5]. Moreover, the TGI in assay [6] is above 100 µM; in assay [7], 54.4 µM; in assay [9], 71.8 µM.

Take `ONc1ncnc2nc[nH]c12`: the TGI in [10], in assay [6], in [7], in assay [8] and in assay [9] was above 100 µM in each case.

Consider `CCOC(=O)C1(C(=O)OCC)Nc2cccnc2N(C)N1`, for which the TGI is 43.8 µM in assay [1]; 34.8 µM in assay [2]; 42.5 µM in [3]; above 100 µM in assay [4]; above 100 µM in [10]; 41.4 µM in [6]. The TGI in assay [9] is 39.1 µM.

As to `CCOC(=O)CSc1nc(N)c2c(-c3ccc(OC)c(OC)c3)c3c(nc2n1)CCCC3`, the TGI in [1], in assay [2], in assay [3], in assay [4], in assay [10] and in [5] was above 100 µM throughout. The TGI in assay [6] and in [9] was above 100 µM in each case.

As to `CCC1C(C#N)=C(N)OC2=C1C(=O)CC(C)(C)C2` (configuration not stated), the TGI in [1], in assay [2], in assay [3], in [4], in assay [5] and in [6] was above 100 µM each time. Also, the TGI in assay [7], in assay [8] and in assay [9] was above 100 µM throughout.

With `CCOC(=O)c1nc2ccc(Cl)cc2c2c1Cc1ccccc1-2`, the TGI in assay [10], in [5], in assay [6], in assay [7], in assay [8] and in assay [9] was above 100 µM in each case.

As to `N=c1c2c(C(N)=O)cn(C3OC(CO)C(O)C3O)c2ncn1O` (configuration not stated), the TGI in [1] is 0.447 µM; in assay [3], 1.36 µM; in assay [4], above 36.3 µM; in assay [10] it was 0.234 µM; in [5], 6.67 µM; in assay [6], 3.14 µM. The TGI in assay [8] is above 20.4 µM; in assay [9] it was 0.506 µM.

Take `CCOC(=O)N(Cc1cccs1)c1cc(OC)c(OC)c(OC)c1`: the TGI is 29.2 µM in assay [1]; above 100 µM in assay [2]; above 100 µM in assay [3]; 65.5 µM in [10]; above 100 µM in [5]; above 100 µM in [6]. The TGI in assay [7], in [8] and in [9] was above 100 µM throughout.

With `Cn1c(=S)[nH]c2sc3c(c2c1=O)CCSC3`, the TGI in assay [1] is above 100 µM; in assay [2], above 100 µM; in [3], 57.1 µM; in assay [4] it was above 100 µM; in assay [5], 85.4 µM; in assay [6], above 100 µM. The TGI in assay [7], in assay [8] and in assay [9] was above 100 µM in each case.

Regarding `N=C(N)c1ccc(-c2ccc(-c3cc(Cl)cc(Cl)c3)o2)nc1`, the GI50 in [1] was 1.93 µM; in assay [2], 1.73 µM; in assay [3], 1.87 µM; in assay [4], 1.95 µM; in [10] it was 1.78 µM; in [6], 1.76 µM. Moreover, the results for the GI50 in assay [7], in assay [8] and in [9] were 1.92 µM, 1.98 µM and 1.9 µM, respectively. The TGI is 3.81 µM in [1]; 3.6 µM in [2]; 3.37 µM in assay [3]; 3.51 µM in assay [4]; 4.8 µM in assay [10]; 3.31 µM in [6]. In addition, the TGI in [7] is 3.8 µM; in assay [8] it was 3.86 µM; in assay [9] it was 3.63 µM.

Regarding `COc1ccc(/C(=C2/O[C@@H]([C@H]3COC(C)(C)O3)[C@H]3OC(C)(C)O[C@@H]23)c2cc(OC)c(OC)c(OC)c2)cc1O`, the GI50 in assay [1] is 3.11 µM; in assay [2], 12.3 µM; in assay [3], 3.93 µM; in assay [4] it was 12.6 µM; in assay [10], 6.1 µM; in [5], 37.4 µM. Also, the GI50 in assay [6] was 5 µM; in assay [7], 31.1 µM; in assay [8], 2.95 µM. Besides, the TGI in assay [1] is 8.85 µM; in assay [2], above 100 µM; in assay [3], above 100 µM; in assay [4], 91.7 µM; in assay [10], above 100 µM; in [5] it was above 100 µM. Further, the results for the TGI in assay [6], in assay [7] and in assay [8] were 43.1 µM, 80.4 µM and 7.54 µM, respectively.

For `O=C(CCCCCCC(=O)Nc1ccc(N(CCCl)CCCl)cc1)NO`, the GI50 in [1] is 5.4 µM; in [2] it was 1.48 µM; in assay [3] it was 2.72 µM; in assay [4], 3.76 µM; in assay [10], 0.23 µM; in assay [5], 11.5 µM. The results for the GI50 in assay [7], in assay [8] and in assay [9] were 9.26 µM, 0.474 µM and 2.43 µM, respectively. Also, the TGI in [1] was above 100 µM; in assay [2], 24.3 µM; in [3], 19.3 µM; in assay [4], 15.9 µM; in assay [10], 3.09 µM; in assay [5], 37.9 µM. The TGI in assay [7] is 22.6 µM; in assay [8], 2.03 µM; in assay [9] it was 10.7 µM.

For the compound `COc1ccc2nc(-c3ccc(-c4noc(-c5cc(OC)c(OC)c(OC)c5)n4)cc3)[nH]c2c1`, the GI50 in assay [1] was 3.32 µM; in assay [2], 1.08 µM; in assay [3], 9.48 µM; in assay [4], 25.3 µM; in assay [5] it was 26.2 µM; in assay [6], 1.68 µM. The GI50 is 35.5 µM in [7], 6.89 µM in [8] and 5.47 µM in [9]. For the same compound, the TGI in [1] was 23.6 µM; in [2] it was 22.1 µM; in assay [3], 28.3 µM; in assay [4], 64.8 µM; in assay [5], 84.9 µM; in assay [6] it was 4.88 µM. Also, the figures for the TGI in assay [7], in assay [8] and in assay [9] were above 100 µM, 45.3 µM and 22.7 µM, respectively.

As to `COc1cc(/C=C/C(=O)c2ccc(NS(=O)(=O)c3cc([N+](=O)[O-])ccc3C)cc2)cc(OC)c1OC`, the TGI in assay [1] was above 100 µM; in [2] it was 9.72 µM; in assay [3] it was 10.2 µM; in assay [4] it was 15.4 µM; in assay [10], 5.74 µM; in assay [5] it was 17 µM. In addition, the TGI in [6] was 13.7 µM; in assay [9], 15.3 µM.

Turning to `CN1CC[C@@]2(c3cccc(O)c3)CC(=O)/C(=C/c3ccccc3)[C@H]1C2`, the TGI in assay [1] is 24.5 µM; in assay [2], 10.3 µM; in [3], 29.3 µM; in assay [10], 7.5 µM; in assay [5], 28.7 µM; in assay [6], 11.1 µM. The TGI in assay [7] was 25 µM; in assay [8], 20 µM; in assay [9] it was 30.4 µM.

Turning to `Cn1c(=O)c2c(nc(-n3nc(-c4ccc(Cl)cc4)cc3N)n2C)n(C)c1=O`, the TGI in assay [1] was above 100 µM; in assay [2], above 100 µM; in assay [3], above 100 µM; in [4], 91 µM; in [10], above 100 µM; in [5], above 100 µM. In addition, the TGI in [6], in [7] and in assay [9] was above 100 µM in each case.
